Laboratory results taken from the CheMixHub ionic liquid set.

Experiment: xn = mol fraction of the nth substance listed

CCCCCCCCCCCCCCCC[n+]1ccccc1.O=C([O-])C(O)c1ccccc1 + NCC(=O)O + O
electrical conductivity [S/m], 101 kPa
Conditions	293.15 K	298.15 K	303.15 K	308.15 K	313.15 K
x1 = 1.08e-06, x2 = 0	0.00061	0.00068	0.00076	0.00083	0.0009
x1 = 1.09e-06, x2 = 0.001799	0.00103	0.00118	0.0013	0.0015	0.0017
x1 = 1.26e-06, x2 = 0.0009002	0.00083	0.00094	0.00106	0.0012	0.0013
x1 = 1.98e-06, x2 = 0	0.001	0.0012	0.0013	0.0014	0.0016
x1 = 2.17e-06, x2 = 0.001799	0.00151	0.00172	0.0019	0.0022	0.0024
x1 = 2.35e-06, x2 = 0.0009002	0.00125	0.00142	0.0016	0.0018	0.0019
x1 = 2.88e-06, x2 = 0	0.00147	0.0016	0.0018	0.002	0.0022
x1 = 3.26e-06, x2 = 0.001799	0.00188	0.0022	0.0024	0.0027	0.003
x1 = 3.43e-06, x2 = 0.0009002	0.00163	0.00185	0.0021	0.0023	0.0025
x1 = 3.96e-06, x2 = 0	0.0019	0.0022	0.0024	0.0026	0.0029
x1 = 4.35e-06, x2 = 0.001799	0.00233	0.00265	0.0029	0.0033	0.0036
x1 = 4.52e-06, x2 = 0.0009002	0.00209	0.00237	0.0026	0.0029	0.0032
x1 = 4.69e-06, x2 = 0	0.0023	0.0026	0.0029	0.0031	0.0035
x1 = 5.26e-06, x2 = 0.001799	0.00273	0.00308	0.0034	0.0038	0.0042
x1 = 5.78e-06, x2 = 0.0009002	0.00258	0.00291	0.0032	0.0036	0.004
x1 = 5.95e-06, x2 = 0	0.00281	0.0032	0.0035	0.0038	0.0042
x1 = 6.52e-06, x2 = 0.001799	0.0032	0.00363	0.004	0.0045	0.005
x1 = 7.05e-06, x2 = 0.0009002	0.00305	0.00343	0.0038	0.0042	0.0046
x1 = 7.21e-06, x2 = 0	0.00341	0.0038	0.0042	0.0046	0.0051
x1 = 8.16e-06, x2 = 0.001799	0.00379	0.00429	0.0048	0.0053	0.0059
x1 = 8.31e-06, x2 = 0.0009002	0.00355	0.00401	0.0045	0.0049	0.0054
x1 = 8.83e-06, x2 = 0	0.00406	0.0046	0.005	0.0055	0.006
x1 = 9.79e-06, x2 = 0.001799	0.00435	0.00491	0.0055	0.0061	0.0068
x1 = 9.94e-06, x2 = 0.0009002	0.00404	0.00455	0.0051	0.0056	0.0063
x1 = 1.045e-05, x2 = 0	0.00469	0.0053	0.0058	0.0065	0.0071
x1 = 1.124e-05, x2 = 0.001799	0.00472	0.00536	0.006	0.0067	0.0075
x1 = 1.138e-05, x2 = 0.0009002	0.00443	0.00502	0.00561	0.0062	0.007
x1 = 1.207e-05, x2 = 0	0.00516	0.0058	0.0064	0.0071	0.0079
x1 = 1.269e-05, x2 = 0.001799	0.00515	0.00581	0.0065	0.0073	0.0081
x1 = 1.283e-05, x2 = 0.0009002	0.00481	0.00543	0.00607	0.0068	0.0076
x1 = 1.351e-05, x2 = 0	0.00562	0.00631	0.007	0.0077	0.0085
x1 = 1.41e-05, x2 = 0.0009002	0.00512	0.0058	0.00647	0.0072	0.008
x1 = 1.414e-05, x2 = 0.001799	0.00553	0.00625	0.007	0.0078	0.0087
x1 = 1.478e-05, x2 = 0	0.00603	0.0068	0.0075	0.0083	0.0092
x1 = 1.54e-05, x2 = 0.001799	0.00584	0.0066	0.0074	0.0083	0.0092
x1 = 1.554e-05, x2 = 0.0009002	0.0055	0.00621	0.0069	0.0077	0.0086
x1 = 1.622e-05, x2 = 0	0.00644	0.0072	0.008	0.0089	0.0098
x1 = 1.667e-05, x2 = 0.001799	0.00618	0.00697	0.0078	0.0087	0.0097
x1 = 1.681e-05, x2 = 0.0009002	0.0058	0.00657	0.0073	0.0082	0.0091
x1 = 1.766e-05, x2 = 0	0.00687	0.0077	0.0085	0.0094	0.0104

C[N+](C)(C)CCO.O=C([O-])c1cccnc1 + O
viscosity [mPa·s], 100 kPa
Conditions	x1 = 0.0008779	x1 = 0.001474	x1 = 0.00202	x1 = 0.002696	x1 = 0.00365	x1 = 0.005797
293.15 K	1.041	1.065	1.087	1.115	1.153	1.238
298.15 K	0.928	0.949	0.968	0.992	1.025	1.097
303.15 K	0.833	0.852	0.869	0.889	0.918	0.98
308.15 K	0.752	0.769	0.784	0.802	0.827	0.88
313.15 K	0.685	0.7	0.713	0.729	0.75	0.796

Cn1cc[n+](CCO)c1.[Cl-] + O
100 kPa
Conditions	electrical conductivity, 293.15 K [S/m]	electrical conductivity, 298.15 K [S/m]	electrical conductivity, 303.15 K [S/m]	electrical conductivity, 308.15 K [S/m]	electrical conductivity, 313.15 K [S/m]	viscosity, 293.15 K [mPa·s]	viscosity, 298.15 K [mPa·s]	viscosity, 303.15 K [mPa·s]	viscosity, 308.15 K [mPa·s]	viscosity, 313.15 K [mPa·s]
x1 = 3.478e-05	0.0241	0.0281	0.0319	0.036	0.04	–	–	–	–	–
x1 = 5.784e-05	0.0382	0.0443	0.0496	0.056	0.062	–	–	–	–	–
x1 = 9.73e-05	0.0597	0.0693	0.0776	0.0866	0.095	1.015	0.904	0.815	0.738	0.676
x1 = 0.0001191	0.0701	0.082	0.0913	0.1	0.11	–	–	–	–	–
x1 = 0.0001798	0.0949	0.111	0.123	0.133	0.146	–	–	–	–	–
x1 = 0.0002349	0.117	0.136	0.151	0.163	0.178	1.023	0.912	0.826	0.75	0.69
x1 = 0.0002827	0.133	0.154	0.171	0.183	0.2	1.025	0.914	0.829	0.753	0.694
x1 = 0.0003387	0.15	0.173	0.192	0.209	0.224	–	–	–	–	–
x1 = 0.0003943	0.165	0.191	0.214	0.228	0.248	1.029	0.92	0.835	0.76	0.702
x1 = 0.000458	–	–	–	–	–	1.032	0.922	0.838	0.764	0.706
x1 = 0.0005686	–	–	–	–	–	1.036	0.926	0.844	0.77	0.713
x1 = 0.0007379	–	–	–	–	–	1.041	0.933	0.851	0.778	0.722
x1 = 0.0009513	–	–	–	–	–	1.048	0.94	0.86	0.787	0.732
x1 = 0.001272	–	–	–	–	–	1.056	0.949	0.872	0.799	0.746
x1 = 0.001562	–	–	–	–	–	1.063	0.957	0.882	0.809	0.757
